Values quoted from earlier work, collected in US20250073222A1, “METHODS FOR THE TREATMENT AND PREVENTION OF NON-VIRAL TICK-BORNE DISEASES AND SYMPTOMS THEREOF” (60 DEGREES PHARMACEUTICALS LLC, priority 2023, published 2025).
Read-outs that look alike come from different tables or passages of the source.

Columns and labels:
Babesia microti = settings: animals; cited from earlier work
Babesia parasites = settings: 100 microM for 2 h; cited from earlier work
[1] = test system: Trypanosome brucei blood stage forms; settings: exposure for 90 minutes; cited from earlier work
Treponema palludum = settings: 50 or 100 microM for two hours in a 3% oxygen atmosphere; cited from earlier work
[2] = test system: various serovars of Leptospira; settings: exposure for as little as 30 min; cited from earlier work
Babesia [3] = settings: one and three doses, immunocompromised mice and dogs; cited from earlier work
Pneumocystis = settings: mice; cited from earlier work
Babesia [4] = settings: mice, single doses; cited from earlier work
[5] = coadministered with chloroquine; cited from earlier work
[6] = loading dose of 600 mg over three days followed by weekly 200 mg for up to one year, cited from earlier work
Plasmodium vivax = settings: 400 mg/day for three days, monotherapy, symptomatic P. vivax malaria patients; cited from earlier work
Plasmodium falciparum = settings: 600 mg loading dose followed by 200 mg; parasite load three days after last dose; non-immune volunteers; cited from earlier work
B. rodhaini = settings: cited from earlier work
[7] = test system: extracellular blood stage forms of Trypanosoma brucei; settings: cited from earlier work
[8] = test system: intracellular amastigote forms of Leishmania major; settings: cited from earlier work
[9] = test system: free-living gram-negative bacteria and free-living gram-positive bacteria; settings: cited from earlier work
B. gibsoni = settings: splenectomized dogs; cited from earlier work
B. microti = settings: one patient, prior rituximab; tafenoquine: approved malaria prevention dose as monotherapy for six weeks; cited from earlier work
[10] = cited from earlier work
[11] = test system: P. falciparum gametocytes; settings: single dose combined with dihydroartemisinin/piperaquine; cited from earlier work
[12] = test system: gametocytes of P. falciparum; settings: cited from earlier work
[13] = single dose of 20 mg/kg, Balb/c (immunocompetent) mice
[14] = single dose of 20 mg/kg, immunocompromised SCID mice

## COc1cc(NC(C)CCCN)c2nccc(C)c2c1 (centres unmarked) [4-methyl substituted primaquine]
Babesia microti
  efficacy against Babesia microti compared with primaquine: more efficacious than primaquine

## OO [hydrogen peroxide]
Babesia parasites
  effect on Babesia parasites in vitro: kills Babesia parasites in vitro
[1]
  concentration that killed blood stage forms: approximately 140 microM
Treponema palludum
  effect on growth: significantly inhibited
[2]
  concentrations that killed: < 180 µM

## COc1cc(C)c2c(Oc3cccc(C(F)(F)F)c3)c(OC)cc(NC(C)CCCN)c2n1 (centres unmarked) [tafenoquine, N(4)-[2,6-Dimethoxy-4-methyl-5-[3-(trifluoromethyl)phenoxy]quinolin-8-yl]pentane-1,4-diamine]
Babesia [3]
  clearance and cure of Babesia: sufficient to clear and cure Babesia
Pneumocystis
  cure of Pneumocystis infections: can be administered as monotherapy to cure Pneumocystis infections
Babesia [4]
  dose that cleared Babesia parasitemia: 20 mg/kg
[5]
  effect on QTC prolongation of chloroquine: did not increase the QTC prolongation
[6]
  overall rate of adverse events relative to placebo: without increasing the overall rate of adverse events
[6]; reversible, not clinically significant
  specific adverse events with increased risk: gastrointestinal effects [mild to moderate] and cornea verticillata
Plasmodium vivax
  time by which all patients cleared blood stage parasites: ≤ 8 days
Plasmodium falciparum
  development of blood stage parasitemia after challenge: none of the tafenoquine subjects did
B. rodhaini; single dose of 20 mg/kg in mice
  effect on B. rodhaini blood stages (vacuoles): induces the formation of large vacuoles
B. rodhaini; [13]
  parasitemia: cleared parasitemia
  survival: 100%
B. rodhaini; [14]
  death: death was therefore delayed
  parasitemia: cleared initial parasitemia but did not prevent relapses
[7]
  potency of killing: < 4 µM
[8]
  potency of killing: < 4 µM
[9]
  activity against gram-negative versus gram-positive bacteria: much less active against free-living gram-negative bacteria than free-living gram-positive bacteria
B. gibsoni
  symptoms of infection such as anorexia, elevated respiration and pulse: alleviated
B. microti
  clinical outcome of the regimen: the patient was cured
[10]; FIG. 1A and FIG. 1B legend
  half-life in vivo compared with primaquine: longer half-life in vivo

## COc1cc(NC(C)CCCN)c2ncccc2c1 (centres unmarked) [primaquine]
Pneumocystis
  cure of Pneumocystis infections: must be combined with clindamycin to achieve the same outcome
Babesia [4]
  dose that cleared Babesia parasitemia: 100 mg/kg
[11]
  time until gametocyte infectivity was statistically lower than reference values: by two days post-dosing
[12]
  effect on gametocytes of P. falciparum: killed by site specific (in bone marrow) excess production of hydrogen peroxide
[10]; in vivo
  half-life: approximately 6 hours
